| SMILES | melting point |
| --- | --- |
| CCCc1c(OCCCC(=O)NCCCCc2cccnc2)ccc(C(C)=O)c1O | 80 to 82 °C |
| Cc1nnc(-c2ccc3occ(-c4cccc(C(F)(F)F)c4)c3c2)o1 | 126 to 127 °C |
| O=[N+]([O-])c1ccc(Nc2ccc(C(F)(F)C(F)(F)C(F)(F)C(F)(F)C(F)(F)C(F)(F)F)cc2)c([N+](=O)[O-])c1 | 145 to 146 °C |
| CS(=O)(=O)c1ccc(-n2nc(C(F)(F)F)cc2-c2nc3cc(F)ccc3[nH]2)cc1 | 278 to 280 °C |
| NC(=O)CN1CCN(c2ccc(NC(=O)c3ccccc3-c3ccc(C(F)(F)F)cc3)cc2)CC1 | 226 to 228 °C |
| NNC(=O)[C@@H]1C[C@]2(NC(=O)NC2=O)c2cc(F)ccc2O1 | 277 to 278 °C |
| COc1cc(Nc2c(C#N)cnc3cc(Br)ccc23)c(Cl)cc1C | 215 to 217 °C |
| O=P(c1ccccc1)(c1ccccc1)c1nc2ccccc2nc1P(=O)(c1ccccc1)c1ccccc1 | 258 to 272 °C |
| O=C1c2cc(F)cc(F)c2OC[C@H]1NC(=O)C(F)(F)F | 167 to 168 °C |
| Cc1cc(C)c(C(=O)P(=O)(Oc2ccccc2C(C)(C)C)c2ccccc2)c(C)c1 (stereo unspecified) | 76 to 79 °C |
| CON(C(=O)c1cn(C)nc1C(F)F)C(C)C1CCC(C)=CC1(C)C (stereo unspecified) | 95 to 105 °C |
| COc1ccc(NC(=O)c2ccc(-c3ccc(-c4noc(C)n4)cc3)c(Cl)c2)cc1N1CCN(C)CC1 | 93 to 95 °C |
| COCCc1nc2c(N)nc3cc(-c4cncc(CO)c4)ccc3c2n1CC(C)(C)O | 210 to 211 °C |
| CC(C)c1nc(CC(=O)N[C@H](C(=O)N[C@@H](Cc2ccccc2)C[C@H](O)[C@H](Cc2ccccc2)NC(=O)OCc2cncs2)C(C)C)cs1 | 153 to 155 °C |
| CS(=O)CC(=NC1CCCCC1)c1cc2ccccc2cc1O (stereo unspecified) | 132 to 136 °C |
| CCN1CC(=O)Nc2cc(NC3(C(N)=O)CC4CC3C=C4Cl)c(OC)cc2C1 (stereo unspecified) | 154 to 156 °C |
| COc1ccccc1C(C)(O)c1ccccc1OC | 122 to 123 °C |
| CCNc1c(OC)cc(C(=O)CS(C)(=O)=O)cc1OC | 129 to 130 °C |
| O=Cc1ccc(OC2CCCC2)c(Oc2ccc([N+](=O)[O-])cc2Br)c1 | 92 to 94 °C |
| CN(N(C)S(C)(=O)=O)S(C)(=O)=O | 168 to 169 °C |
| N#Cc1ccc(N(Cc2ccc(O)c(Br)c2)n2cnnc2)cc1-c1ccoc1 | 200 to 201 °C |
| COc1ccc(C2(C#Cc3ccc(C(=O)O)cc3)CCCC(=O)C2)cc1OC1CCCC1 (racemic) | 102 to 104 °C |
| COc1ccc(CN(C)CCc2ccc(NC(=O)c3cccc4c(=O)c5c(OC)ccc(OC)c5[nH]c34)cc2)cc1OC | 196 °C |
| Nc1cccc(OCc2ccc3ccccc3n2)c1 | 98 to 99 °C |
| CC(C)CC(=O)Nc1ccc(Cl)c(-c2ccnc3c(C(=O)c4cccs4)cnn23)c1 | 162 to 165 °C |

| SMILES | melting point |
| --- | --- |
| C=CCNC(=O)C(C#N)C(=O)C1CC1 (stereo unspecified) | 72 to 73.5 °C |
| O=[N+]([O-])c1cc(C(F)(F)F)cc2nc(N3CCN(c4ncccc4C(F)(F)F)CC3)[nH]c12 | 192 °C |
| CCCn1c(=O)n(-c2ccc3c(c2)OCO3)c2ncc(N)cc21 | 177 to 178 °C |
| Nc1ccc([C@@H](O)CNC[C@@H]2CCc3cc(S(=O)(=O)Nc4ccc(-n5nnn(CCCC6CCCC6)c5=O)cc4)ccc3O2)cn1 | 99.3 to 99.7 °C |
| CNC(=O)ON=C1CCOc2ccccc21 | 123 to 126 °C |
| CCn1c(=O)c(=O)[nH]c2cc([N+](=O)[O-])c(-n3cccc3)cc21 | > 300 °C |
| CCOC(=O)c1cccc(C)c1S(=O)(=O)NC(=O)Nc1nc(OCC(F)(F)F)nc(N(C)C)n1 | 134 to 142 °C |
| CC1=NCCN1c1cnc2[nH]cc(C(=O)C(C)(C)C)c2n1 | 235 to 236 °C |
| O=C1c2cccc3c(N4CCCC4)c(F)cc(c23)C(=O)N1O | 224 to 226 °C |
| O=S(=O)(Nc1ccc2c(OCc3nc(-c4ccc(F)cc4)sc3Br)cccc2c1)C(F)(F)F | 139 to 140 °C |
| O=Cc1sc(Cl)c(Cl)c1Cl | 81 to 82 °C |
| CC(C)(C)OC(=O)[C@H]1C[C@@H](C(=O)OCc2ccccc2)[C@@H](c2ccccc2)N1C(=O)CNC(=O)Nc1cccc(C(=O)OCc2ccccc2)c1 (racemic) | 110 °C |
| COc1cn(-c2ccc(N3CC(F)(F)C(F)(F)C3)cc2F)nc(-c2ccnn2-c2ccccc2)c1=O | 175 to 177 °C |
| O=C1NC(=O)C(=Cc2ccc(OC3CCN(c4ccccn4)CC3)cc2)S1 | 218 to 220 °C |
| COC(=O)C12CCC(C(=O)O)(CC1)CC2 | 169 to 173 °C |
| O=c1oc2c(c(O)c1C(c1ccccc1)C1CC1)CCCCC2Cc1ccccc1 (stereo unspecified) | 178 to 182 °C |
| COC(=O)c1cc(OCc2cc(SC)cc(SC)c2)cc(OCc2cc(SC)cc(SC)c2)c1 | 121 to 122 °C |
| CC(C)(C)OC(=O)N1CCC(Nc2nc3ccccc3n2Cc2cnc(CO)o2)CC1 | 132 °C |
| CCCCCCCCCCCCCCCCOCC(COCCCCCCCCCCCCCCCC)NCCC#N | 45 to 46 °C |
| CCc1cc2c(s1)-n1c(C)nnc1C(CCC(=O)O)N=C2c1ccc(Cl)cc1 (stereo unspecified) | 210 to 212 °C |
| CC(C)C1(C)CC(O)C2(C)CCC3c4ccc(O)cc4CCC3C12 (stereo unspecified) | 201 to 205 °C |
| Brc1ccc(-c2cc3nccnc3[nH]2)cc1 | 326 to 329 °C |
| CCCCCCCCCCCCCCOc1cccc(CBr)c1CBr | 55.7 to 56.5 °C |
| COCCOc1ccc(/C=C/COC(=O)NS(=O)(=O)NCCc2ccccc2)c(Oc2ncc(C(F)(F)F)cc2Cl)c1 | 113 to 114 °C |

Next, values leading:

| melting point | SMILES |
| --- | --- |
| 104 to 106 °C | ON=C(Cl)c1ccc(Cl)c(Cl)c1 |
| 150 to 152 °C | O=C(O)c1ccc(OCc2ccc(Cl)cc2)cc1OCc1ccccc1 |
| 157 °C | CC(Cc1ccc(Cl)cc1Cl)NC(=O)c1cn(C)nc1C(F)F (stereo unspecified) |
| 230 to 232 °C | O=C1Nc2c(ccc3ccccc23)OC1c1ccc(Cl)cc1 (stereo unspecified) |
| 197 °C | N#Cc1cc2c(=O)c3ccccc3ccn2c1 |
| 269 to 271 °C | CO[C@@H](C)CNC(=O)c1c[nH]c2ncc(-c3nn(C)c4cc(F)ccc34)nc12 |
| 198 to 201 °C | CCOC(=O)c1cn(Cc2cnsn2)c2cc(F)c(F)cc2c1=O |
| 216 to 218 °C | CSc1nc(-c2ccncc2)nc(=O)n1C |
| 99 to 100 °C | Oc1cccc2csnc12 |
| 221 to 222 °C | CC(=O)Nc1ccn2nc(-c3ccccc3)c(-c3ccc(=O)n(C(C)C)n3)c2c1 |
| 292 to 294 °C | O=C(O)c1ccc(-c2cc3ccccc3o2)cc1 |
| 150 °C | COc1ccc(COC(=O)Nc2cncc(O)c2CCCOc2cccnc2Oc2cccc(Cl)c2)cc1 |
| 123 °C | COC(=O)[C@@H]1CC(=O)N(c2ccc(O)cc2)C1 |
| 161 to 162 °C | CNC(=O)C1CC(C)(C)Oc2ccc([N+](=O)[O-])cc21 (stereo unspecified) |
| 93 to 94 °C | CCOC(=O)CCCCc1oc(-n2ccnc2C)nc1-c1ccc(Cl)cc1 |
| 147 °C | CCC(=O)c1cc2ccccc2cc1C(=O)O |
| 185 to 187 °C | Cc1nc2c(O)c(CC[C@H](O)c3ccccc3)c(C(=O)N(C)C)cn2c1C |
| 222 to 223 °C | CCOC(=O)c1ccc(NC(=O)Cc2csc3nc(C(=O)NCc4cccc(OC)c4)[nH]c(=O)c23)cc1 |
| 168 to 170 °C | CCOC(=O)c1cc2c(OC)cccc2[nH]1 |
| 288 to 290 °C | COC(=O)c1cc(F)c2ncc(C(=O)NCc3ccc(Cl)cc3)c(O)c2c1 |
| > 270 °C | O=C(O)c1cn(-c2ccc(F)c([N+](=O)[O-])c2)c2nc(Cl)c(F)cc2c1=O |
| 154 °C | COc1ccc2nccc(C(O)CCC3CCNCC3)c2c1 (stereo unspecified) |
| 43 to 46 °C | CC1CCN(C(=O)Oc2ccc(Oc3ccccc3)cc2F)CC1 |
| 202 to 204 °C | CCOC(=O)c1nc(SC)n2c1c(=O)n(C)c1cc(C(F)(F)F)ccc12 |

| melting point | SMILES |
| --- | --- |
| 140 °C | CNC(=O)n1sc(SCc2ccc(Cl)cc2)nc1=O |
| 216 to 218 °C | COc1ccc(C)cc1NC(=O)Nc1ccc2c(c1)C=CN(C(=O)Nc1c(C)cccc1Cl)C2 |
| 155 to 159 °C | CCn1cc2c(C3CC3CNC(C)=O)cccc2n1 (stereo unspecified) |
| 226 °C | NC(=S)c1cc(Cl)cc2cc(Cl)cnc12 |
| 110 °C | O=S(=O)(CC(O)(CCl)c1ccccc1)c1ccccc1 (stereo unspecified) |
| 134 to 147 °C | CCOC(=O)COc1cc(C)nc2c(OCc3c(Cl)ccc(N(C)C(=O)CNC(=O)C=Cc4ccc(C(=O)NC)cc4)c3Cl)cccc12 |
| 121 to 122 °C | CCCc1nc2ccc(N)cc2n1Cc1ccccc1Cl |
| 85 to 86 °C | COC(=O)C=Cc1cccc2cc[nH]c12 |
| 133 to 135 °C | NCC(=O)Nc1ccc(Cl)cc1C(=O)c1c(F)cccc1F |
| 103 to 106 °C | CC(=O)c1cc2c(s1)S(=O)CCN(CCCCN1CCN(c3ncccn3)CC1)C2=O (stereo unspecified) |
| 71 °C | O=C1c2ccccc2C(OCCCl)N1c1ccccc1 (stereo unspecified) |
| 216 to 218 °C | CCCc1c(O)cc(O)c(C(=O)CCc2ccc(O)cc2)c1O |
| 115 to 116 °C | CCCc1csc(/C=C/c2cccc(NCCCC(=O)O)c2)n1 |
| 170 to 175 °C | CS(=O)(=O)c1ccc(-c2cnn(CC(F)(F)F)c(=O)c2Nc2ccc(F)cc2F)cc1 |
| 171 to 172 °C | Cc1cccc2c(=O)nc(-c3cccc(C(=O)NCCCCCCNC(=O)OC(C)(C)C)n3)sc12 |
| 218 to 220 °C | CC(=O)N1CCN(Cc2nc(-c3ccc4c(c3)Nc3ccccc3S4)cs2)CC1 |
| 132 °C | CN(c1ccccc1)c1nc(Cl)nc(Cl)n1 |
| 95 to 96 °C | C[C@@H](NC(=O)OC(C)(C)C)c1nc2c(Cl)cccc2s1 |
| 138 to 142 °C | COC(=O)c1c(-c2ccc(Cl)cc2)ccnc1Sc1nc(OC)cc(OC)n1 |
| 214 to 216 °C | Cc1ccc(-c2ccc(Cl)c(C(=O)NCC34CC5CC(CC(C5)C3)C4)c2)c(C(=O)O)c1 |
| 258 to 260 °C | Nc1sc2c(c1C(=O)c1ccc(Cl)c3ccccc13)CCC2 |
| 158 to 159 °C | Cc1ccc(S(=O)(=O)NCCCCOc2ccc(-c3nc(-c4ccc(Cl)cc4)cs3)cc2)cc1 |
| 196 to 198 °C | CCc1nc(-c2ncn3c4ccc(Cl)cc4c(=O)n(C)c23)no1 |

Reference: a melting point compilation (Tetko et al.; mined from patent text by program, amines drawn as free bases though some values may be those of a salt)
